Laboratory results reported in patent publication US8710252B2, “Hepodxilin analog enantiomers” (priority 2006, dated 2014).
Entries after “also recorded” stand apart in the source; their conditions may differ.

Tests used:
[1] = biological target: T1, Ga14-DBD-PPAR gamma-LBD fusion protein (Homo sapiens, UniProt P37231); assay: PPAR gamma transactivation assay (Gal4-PPAR gamma LBD / UASx4-TK-luc reporter); format: cell-based
T1 construct: expressed in transfected cells; host or cells: mouse embryonic fibroblasts (MEFs) or ME3 cells
T1 sequence (P37231 238-503 limits assumed): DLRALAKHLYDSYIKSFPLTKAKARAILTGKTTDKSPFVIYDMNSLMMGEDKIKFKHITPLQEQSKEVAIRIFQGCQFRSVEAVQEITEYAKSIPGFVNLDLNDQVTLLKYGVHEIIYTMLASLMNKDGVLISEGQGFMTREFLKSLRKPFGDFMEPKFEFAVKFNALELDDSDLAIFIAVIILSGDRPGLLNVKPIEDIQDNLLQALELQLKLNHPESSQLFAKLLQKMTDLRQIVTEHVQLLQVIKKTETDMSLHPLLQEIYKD
Source text: The UASx4-TK-luc reporter construct (where UAS refers to “upstream activator sequence”) contains four Ga14-responsive elements. The plasmid Ga14-PPAR gammaLBD encodes a Ga14-DBD-PPAR gamma-LBD fusion protein (i.e. the DNA-binding domain, DBD, of Ga14 fused to the ligand-binding domain, LBD, of PPAR gamma) capable of transactivating the UASx4-TK-luc reporter plasmid by binding to the UAS. The CMV-beta-galactosidase plasmid (where CMV is cytomegalovirus) was used for normalization of experimental values.
The cells were replated, typically in 24 well plates, so that at the time of transfection the cells were 50-70% confluent.
Briefly, per well in a 24 well plate, UASx4TKIuc (0.2 microg) Ga14-PPAR gammaLBD (or pM-hPPAR gamma-LBD; 0.1 microg) and CMV-beta-galactosidase (0.05 microg) in 30 μL DMEM (free of serum and antibiotics) was mixed with 30 microL DMEM (free of serum and antibiotics) containing 1 microL metafectenein. The mixture was incubated at room temperature for 20 min to allow formation of nucleic acid-lipid complexes and then approximately 60 micros was added to each well containing the 50-70% confluent cells. […] Cells were harvested after 12-24 hours and luciferase and beta-galactosidase activities were measured according to standard protocols.
Each experiment was carried out with triplicate samples with 0.1, 1 or 10 microM racemate or purified enantiomer.

[2] = tested on: Caspase-3 cleavage in K562 cells; assay: Caspase-3 cleavage in K562 cells, Western blot; format: cell-based, human; conditions: 10 uM, 6 h, FIG. 7
Method: Cell culture: Human leukemia K562 cells, obtained from ATCC (American Type Culture Collection), were maintained in RPMI 1640 medium containing 100 units/ml penicillin G, 100 μg/ml streptomycin, 10% (v/v) fetal calf serum in a humidified atmosphere with 5% CO2 at 37° C. The ability of the cells to exclude trypan Blue dye was used to assess cell viability.
Cell treatment: K562 cells were stored in 0.5% FBS for 15 min before the experiment. The cells, 6×10^5, were treated with DMSO as vehicle, or with PBT-3, PBT-4, or compounds A, B, C and D at 10 uM/dish (8 ml). Gleevec™ (STI) was used at 5 μM/dish. All experiments were without FBS and treatment lasted 6 h at 37° C. Treatment was terminated by washing the cells with ice-cold PBS buffer by centrifugation at 500×g for 5 min. Cells were lysed in buffer containing 20 mM Tris-HCl buffer, pH 7.4, 150 NaCl, 1 mM EDTA, 1 mM EGTA, 1% Triton X-100 2.5 mM sodium pyrophosphate, 1 mM beta-glycerophosphate, 1 mM sodium orthovanadate, 1 mM PMSF and 1 μM leupeptin/1 μM Aprotinin/1 μM pepstain A, on ice for 30 min. The lysates were clarified by centrifugation at 15,000×g for 15 min at 4° C. Lysates were subjected to protein assay (BCA, Pierce) and kept at −80° C.
Western blot: Thirty micrograms of protein from each sample were taken, and SDS-PAGE sample loading buffer was added. The mixture was boiled for 5 min. After centrifugation, the samples were loaded onto 15% SDS-PAGE gel and the gel was run (BioRad Protein II) for 2-3 h at 20 mA. The protein was transferred to a Trans-blot Nitrocellulose membrane (Millipore). Protein bands on the membranes were checked visually with Ponceau S-staining to ensure equivalent protein load/transfer comparing different samples. Membranes were blocked with 5% non-fat dry milk in PBS containing 0.5% Tween-20 for 1 h at room temperature, and then incubated with 1:1000 dilution of anti-caspase-3 antibody (BD Transduction Laboratories, Mississauga, Canada) overnight at 4° C. Secondary antibody of horseradish peroxidase anti-mouse antibody was used at 1:2000 dilution. Bound antibodies were detected by using enhanced chemilluminescence (ECL kit, Amersham Pharmacia Biotech) and the membranes were exposed to Hyper film for ECL detection. The same membrane was stripped by placing in buffer containing 62.5 mM Tris-HCl, pH 6.8/2% SDS/100 mM beta-mercaptoethanol at 50° C. for 30 min. The membrane was washed 3 times with PBS containing 0.5% Tween-20. The membrane was blocked by PBS buffer containing 0.5% Tween-20 and 5% skim milk. The anti-tubulin antibody (Santa Cruz, Calif.) was diluted 1:1000 and membrane analyzed by ECL as described above.

[3] = tested on: human leukemic K562 cells; assay: Inhibition of 3H-methyl thymidine incorporation (cell proliferation) in K562 cells; format: cell-based; conditions: 6 h treatment; compounds are methyl esters
Method: The human leukemic K562 cell line was established as previously reported (Qiao et al., 2003). Cells were maintained as suspension cultures in RPMI 1640 medium supplemented with 100 1.1/ml penicillin G, 100 μg/ml streptomycin, 10% (v/v) […] in a humidified atmosphere of 5% CO2 at 37° C. Cell viability was assessed by the exclusion of Trypan blue. Incorporation of ^3H-methyl thymidine into cell DNA was used as an assay for cell proliferation. Cells ([…]) were starved for 12 h, and were subsequently treated with the test compounds. Compounds A, B, C and D were made up at various concentrations in DMSO ([…] A, B, C and D. Concentrations were doubled for racemates PBT-3 and PBT-4) and 1 of these solutions was added/ml volume of cells. Cells were suspended in RPMI 1640 medium. At 6 h post-treatment at 37° C. the cells were fixed and denatured essentially as described in Qiao et al. (2003), harvested and passed through Whatman GF/C glass filters. The filters were washed and counted for radioactivity.

washed human platelets = assay: I-BOP evoked human platelet aggregation in vitro with washed platelets; format: cell-based; conditions: washed human platelets, 5 ng I-BOP; compounds are methyl esters; read-out: IC50, inhibition of I-BOP evoked human platelet aggregation
Method: Washed human platelets were prepared as previously described (Pace-Asciak et al., 2002). The aggregation of platelets was carried out in a conventional 4-well aggregometer with stirring of the suspension maintained at 37° C. The platelet suspension was caused to aggregate with a thromboxane stable analog, I-BOP. The isolated enantiomer compounds and their respective racemates, PBT-3 and PBT-4, were added at various concentrations to cuvettes containing 375×10^6 platelets/ml, 1 min prior to the addition of 5 ng I-BOP (Cayman Chemicals, Ann Arbor, Mich.). Aggregation was monitored for an additional 5 min.

Row | Compound | PPAR gamma transactivation, result in words [1] | PPAR Activation as % of positive control (Avandia) ([1]; Experiment 1, 0.1 microM) | PPAR Activation as % of positive control (Avandia) ([1]; Experiment 1, 1 microM) | PPAR Activation as % of positive control (Avandia) ([1]; Experiment 1, 10 microM) | PPAR Activation as % of positive control (Avandia) ([1]; Experiment 2, 0.1 microM) | PPAR Activation as % of positive control (Avandia) ([1]; Experiment 2, 1 microM) | PPAR Activation as % of positive control (Avandia) ([1]; Experiment 2, 10 microM) | PPAR Activation as % of positive control (Avandia) ([1]; Experiment 3, 0.1 microM) | PPAR Activation as % of positive control (Avandia) ([1]; Experiment 3, 1 microM) | PPAR Activation as % of positive control (Avandia) ([1]; Experiment 3, 10 microM) | Cleavage of caspase-3 [2] | IC50 [3] | IC50 (washed human platelets) | PPAR Activation as % of positive control (Avandia) ([1]; 10 microM racemate, Table 3)
1 | CCCCC/C=C\CC1CC1C(O)/C=C\C/C=C\CCCC(=O)OC (stereo not drawn) [Compound D, 10S-hydroxy-11S,12S-cyclopropyl-eicosa-5Z,8Z,14Z-trienoic acid methyl ester] | more effectively than Compound C; also recorded: improved PPAR gamma transactivating activity over Compound C; also recorded: higher fold PPAR gamma transactivation than compound C | 14 +/− 3 % of positive control (Avandia) | 17 +/− 3 % of positive control (Avandia) | 69 +/− 15 % of positive control (Avandia) | 4 +/− 1 % of positive control (Avandia) | 5 +/− 1 % of positive control (Avandia) | 18 +/− 1 % of positive control (Avandia) | 7 +/− 2 % of positive control (Avandia) | 8 +/− 1 % of positive control (Avandia) | 33 +/− 7 % of positive control (Avandia) | increased cleavage of caspase-3 | 5200 nM | 82 ± 18 nM | –
2 | CCCCC/C=C\CC1CC1C(O)/C=C\C/C=C\CCCC(=O)OC (stereo not drawn) [PBT-3, 10-hydroxy-11,12-cyclopropyl-eicosa-5Z,8Z,14Z-trienoic acid methyl ester, reference compound] | – | 11 +/− 2 % of positive control (Avandia) | 15 +/− 2 % of positive control (Avandia) | 42 +/− 8 % of positive control (Avandia) | 4 +/− 1 % of positive control (Avandia) | 8 +/− 1 % of positive control (Avandia) | 41 +/− 5 % of positive control (Avandia) | 8 +/− 2 % of positive control (Avandia) | 18 +/− 4 % of positive control (Avandia) | 32 +/− 4 % of positive control (Avandia) | increased cleavage of caspase-3 | 4600 nM | 54 ± 9 nM | 18 +/− 1 % of positive control (Avandia)
3 | CCCCC/C=C\CC1CC1C(O)/C=C\C/C=C\CCCC(=O)OC (stereo not drawn) [PBT-4, 10-hydroxy-11,12-cyclopropyl-eicosa-5Z,8Z,14Z-trienoic acid methyl ester, reference compound] | – | 13 +/− 2 % of positive control (Avandia) | 13 +/− 3 % of positive control (Avandia) | 60 +/− 9 % of positive control (Avandia) | 4 +/− 1 % of positive control (Avandia) | 7 +/− 1 % of positive control (Avandia) | 32 +/− 1 % of positive control (Avandia) | 7 +/− 1 % of positive control (Avandia) | 15 +/− 7 % of positive control (Avandia) | 33 +/− 8 % of positive control (Avandia) | increased cleavage of caspase-3 | 4900 nM | 79 ± 17 nM | 19 +/− 1 % of positive control (Avandia)
